Tests used:
[1] = Blood glucose after oral BHP or BKP (Example 1); assay type: in vivo, human; settings: 10 g oral in water, 12 h fast
Description: (§1) Two (2) healthy, male subjects reported to the laboratory following a 12 hour overnight fast. Subjects were instructed to randomly consume either 10 grams of BHP or 10 grams BKP dissolved in 12 ounces of water. Subjects were then monitored for 150 minutes following drinking the mixture. Blood glucose, ketones, and visual analog scales (VAS) of well-being, energy, and focus were taken at 0, 30, 60, 90, 120, and 150 minutes. VAS scales consisted of a continuum of numbers from 1-10 with 1 being extremely low and 10 being extremely high.
(§2) Blood ketones were measured via finger prick using an Abbott Precision device which determines mMol of BHB. Blood glucose was measured using Abbott Precision glucose strips and was measured in mg/dL.

[2] = Blood ketones (BHB, Abbott Precision) after oral BHP or BKP (Example 1); assay type: in vivo, human; settings: 10 g oral in water, 12 h fast
Description: as §1, §2

[3] = Visual analog scale of well-being after BHP or BKP (Example 1); assay type: in vivo, human; settings: scale 1-10, 10 g oral, 12 h fast
Description: as §1

[4] = Visual analog scale of energy after BHP or BKP (Example 1); assay type: in vivo, human; settings: scale 1-10, 10 g oral, 12 h fast
Description: as §1

[5] = Visual analog scale of focus after BHP or BKP (Example 1); assay type: in vivo, human; settings: scale 1-10, 10 g oral, 12 h fast
Description: as §1

[6] = Blood ketones after oral BHP (Example 3); assay type: in vivo, human; settings: 10 g BHP oral in water
Description: (§3) Subjects consumed 10 grams of BHP dissolved in 12 ounces of water. Subjects were then monitored for 80 minutes following drinking the mixture. Blood glucose, ketones, and lactate were taken at 0, 20, 40, 60, and 80 minutes.
(§4) Blood ketones were measured via finger prick using an Abbott Precision device which determines mMol of BHB. Blood glucose was measured using Abbott Precision glucose strips and was measured in mg/dL. Blood lactate was measured using an Abbott Precision device which determines mMol of lactate.

[7] = Blood glucose after oral BHP (Example 3); assay type: in vivo, human; settings: 10 g BHP oral in water
Description: as §3, §4

[8] = Blood lactate after oral BHP, safety (Example 3); assay type: in vivo, human; settings: 10 g BHP oral in water
Description: The purpose of this experiment was to determine safety associated with ingestion of exogenous C5 ketones with regard to hyperlactemia, lactic acidosis, or ketoacidosis that sometimes happens with medications, as all 3 are associated with morbidity and mortality.
as §3, §4

[9] = short-term experiments; large supply of propionyl-CoA; cited from earlier work

CCC(O)CC(=O)O (stereo not drawn) [BHP, β-hydroxypentanoate]
Blood glucose levels ([1]; Combined, 0 min.): 84 mg/dL | Blood glucose levels ([1]; Combined, 30 min.): 80.5 mg/dL | Blood glucose levels ([1]; Combined, 60 min.): 70.5 mg/dL | Blood glucose levels ([1]; Combined, 90 min.): 79 mg/dL | Blood glucose levels ([1]; Combined, 120 min.): 83.5 mg/dL | Blood glucose levels ([1]; Combined, 150 min.): 90.5 mg/dL | Blood glucose levels ([1]; Subject 1, 0 min.): 84 mg/dL | Blood glucose levels ([1]; Subject 1, 30 min.): 85 mg/dL | Blood glucose levels ([1]; Subject 1, 60 min.): 75 mg/dL | Blood glucose levels ([1]; Subject 1, 90 min.): 79 mg/dL | Blood glucose levels ([1]; Subject 1, 120 min.): 86 mg/dL | Blood glucose levels ([1]; Subject 1, 150 min.): 91 mg/dL | Blood glucose levels ([1]; Subject 2, 0 min.): 84 mg/dL | Blood glucose levels ([1]; Subject 2, 30 min.): 76 mg/dL | Blood glucose levels ([1]; Subject 2, 60 min.): 66 mg/dL | Blood glucose levels ([1]; Subject 2, 90 min.): 79 mg/dL | Blood glucose levels ([1]; Subject 2, 120 min.): 81 mg/dL | Blood glucose levels ([1]; Subject 2, 150 min.): 90 mg/dL | Blood ketone levels ([2]; Combined, 0 min.): 0.1 mmol | Blood ketone levels ([2]; Combined, 30 min.): 1.6 mmol | Blood ketone levels ([2]; Combined, 60 min.): 0.55 mmol | Blood ketone levels ([2]; Combined, 90 min.): 0.2 mmol | Blood ketone levels ([2]; Combined, 120 min.): 0.3 mmol | Blood ketone levels ([2]; Combined, 150 min.): 0.2 mmol | Blood ketone levels ([2]; Subject 1, 0 min.): 0.1 mmol | Blood ketone levels ([2]; Subject 1, 30 min.): 1.8 mmol | Blood ketone levels ([2]; Subject 1, 60 min.): 0.7 mmol | Blood ketone levels ([2]; Subject 1, 90 min.): 0.2 mmol | Blood ketone levels ([2]; Subject 1, 120 min.): 0.2 mmol | Blood ketone levels ([2]; Subject 1, 150 min.): 0.2 mmol | Blood ketone levels ([2]; Subject 2, 0 min.): 0.1 mmol | Blood ketone levels ([2]; Subject 2, 30 min.): 1.4 mmol | Blood ketone levels ([2]; Subject 2, 60 min.): 0.4 mmol | Blood ketone levels ([2]; Subject 2, 90 min.): 0.2 mmol | Blood ketone levels ([2]; Subject 2, 120 min.): 0.4 mmol | Blood ketone levels ([2]; Subject 2, 150 min.): 0.2 mmol | VAS of Well-Being ([3]; Combined, 0 min.): 6 | VAS of Well-Being ([3]; Combined, 30 min.): 5 | VAS of Well-Being ([3]; Combined, 60 min.): 4.5 | VAS of Well-Being ([3]; Combined, 90 min.): 6 | VAS of Well-Being ([3]; Combined, 120 min.): 4.5 | VAS of Well-Being ([3]; Combined, 150 min.): 5 | VAS of Well-Being ([3]; Subject 1, 0 min.): 7 | VAS of Well-Being ([3]; Subject 1, 30 min.): 5 | VAS of Well-Being ([3]; Subject 1, 60 min.): 5 | VAS of Well-Being ([3]; Subject 1, 90 min.): 7 | VAS of Well-Being ([3]; Subject 1, 120 min.): 5 | VAS of Well-Being ([3]; Subject 1, 150 min.): 6 | VAS of Well-Being ([3]; Subject 2, 0 min.): 5 | VAS of Well-Being ([3]; Subject 2, 30 min.): 5 | VAS of Well-Being ([3]; Subject 2, 60 min.): 4 | VAS of Well-Being ([3]; Subject 2, 90 min.): 5 | VAS of Well-Being ([3]; Subject 2, 120 min.): 4 | VAS of Well-Being ([3]; Subject 2, 150 min.): 4 | VAS of Energy ([4]; Combined, 0 min.): 4 | VAS of Energy ([4]; Combined, 30 min.): 3.5 | VAS of Energy ([4]; Combined, 60 min.): 3.5 | VAS of Energy ([4]; Combined, 90 min.): 5 | VAS of Energy ([4]; Combined, 120 min.): 4.5 | VAS of Energy ([4]; Combined, 150 min.): 6 | VAS of Energy ([4]; Subject 1, 0 min.): 5 | VAS of Energy ([4]; Subject 1, 30 min.): 4 | VAS of Energy ([4]; Subject 1, 60 min.): 5 | VAS of Energy ([4]; Subject 1, 90 min.): 7 | VAS of Energy ([4]; Subject 1, 120 min.): 5 | VAS of Energy ([4]; Subject 1, 150 min.): 7 | VAS of Energy ([4]; Subject 2, 0 min.): 3 | VAS of Energy ([4]; Subject 2, 30 min.): 3 | VAS of Energy ([4]; Subject 2, 60 min.): 2 | VAS of Energy ([4]; Subject 2, 90 min.): 3 | VAS of Energy ([4]; Subject 2, 120 min.): 4 | VAS of Energy ([4]; Subject 2, 150 min.): 5 | VAS of Focus ([5]; Combined, 0 min.): 3.5 | VAS of Focus ([5]; Combined, 30 min.): 4 | VAS of Focus ([5]; Combined, 60 min.): 3 | VAS of Focus ([5]; Combined, 90 min.): 3 | VAS of Focus ([5]; Combined, 120 min.): 5 | VAS of Focus ([5]; Combined, 150 min.): 5 | VAS of Focus ([5]; Subject 1, 0 min.): 5 | VAS of Focus ([5]; Subject 1, 30 min.): 5 | VAS of Focus ([5]; Subject 1, 60 min.): 5 | VAS of Focus ([5]; Subject 1, 90 min.): 5 | VAS of Focus ([5]; Subject 1, 120 min.): 5 | VAS of Focus ([5]; Subject 1, 150 min.): 5 | VAS of Focus ([5]; Subject 2, 0 min.): 2 | VAS of Focus ([5]; Subject 2, 30 min.): 3 | VAS of Focus ([5]; Subject 2, 60 min.): 3 | VAS of Focus ([5]; Subject 2, 90 min.): 3 | VAS of Focus ([5]; Subject 2, 120 min.): 5 | VAS of Focus ([5]; Subject 2, 150 min.): 5 | Blood Ketones ([6]; 0 min.): 0.3 mmol/L | Blood Ketones ([6]; 20 min.): 0.6 mmol/L | Blood Ketones ([6]; 40 min.): 1.8 mmol/L | Blood Ketones ([6]; 60 min.): 1.1 mmol/L | Blood Ketones ([6]; 80 min.): 0.5 mmol/L | Blood Glucose ([7]; 0 min.): 99.5 mg/dL | Blood Glucose ([7]; 20 min.): 103 mg/dL | Blood Glucose ([7]; 40 min.): 102.5 mg/dL | Blood Glucose ([7]; 60 min.): 94.5 mg/dL | Blood Glucose ([7]; 80 min.): 92.5 mg/dL | Blood Lactate ([8]; 0 min.): 1.3 mmol/L | Blood Lactate ([8]; 20 min.): 1.4 mmol/L | Blood Lactate ([8]; 40 min.): 0.7 mmol/L | Blood Lactate ([8]; 60 min.): 0.9 mmol/L | Blood Lactate ([8]; 80 min.): 1.1 mmol/L | Metabolism and tolerance in animals [9]: well metabolized in animals without apparent intolerance
